Experimental data from US9125913B2, “Bcl-2-selective apoptosis-inducing agents for the treatment of cancer and immune diseases” (AbbVie Inc., priority 2008, dated 2015).

System: GST-Bcl-2
Test: TR-FRET binding assay, Bcl-2
Conditions: TR-FRET Ki values
In short: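 Ki values come from Wang's competitive-binding equation applied to TR-FRET signal (excitation 340/35 nm; emission 520/525 nm F-Bak peptide, 495/510 nm Tb antibody). Protein, probe and antibody incubated with compound 3 h at room temperature; dilution series began at 50 μM as 2× stock in 10% DMSO.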

Structure (SMILES) | Binding selectivity ratio (Bcl-XL Ki/Bcl-2 Ki)
CC1(C)CCC(CN2CCN(c3ccc(C(=O)NS(=O)(=O)c4cnc(O[C@@H]5CCN(CC(F)F)C5)c(Cl)c4)c(Oc4cccc5[nH]ncc45)c3)CC2)=C(c2ccc(Cl)cc2)C1 [EXAMPLE 422, N-[(5-chloro-6-{[(3R)-1-(2,2-difluoroethyl)pyrrolidin-3-yl]oxy}pyridin-3-yl)sulfonyl]-4-(4-{[2-(4-chlorophenyl)-4,4-dimethylcyclohex-1-en-1-yl]methyl}piperazin-1-yl)-2-(1H-indazol-4-yloxy)benzamide] | 4073
CN(C)CC(=O)N1CCO[C@H](COc2ncc(S(=O)(=O)NC(=O)c3ccc(N4CCN(CC5=C(c6ccc(Cl)cc6)CC(C)(C)CC5)CC4)cc3Oc3cccc4[nH]cnc34)cc2Cl)C1 [EXAMPLE 423, 2-(1H-benzimidazol-4-yloxy)-N-[(5-chloro-6-{[(2S)-4-(N,N-dimethylglycyl)morpholin-2-yl]methoxy}pyridin-3-yl)sulfonyl]-4-(4-{[2-(4-chlorophenyl)-4,4-dimethylcyclohex-1-en-1-yl]methyl}piperazin-1-yl)benzamide] | 756.62
CN(C)CC(=O)N1CCO[C@@H](COc2ncc(S(=O)(=O)NC(=O)c3ccc(N4CCN(CC5=C(c6ccc(Cl)cc6)CC(C)(C)CC5)CC4)cc3Oc3cccc4[nH]cnc34)cc2Cl)C1 [EXAMPLE 424, 2-(1H-benzimidazol-4-yloxy)-N-[(5-chloro-6-{[(2R)-4-(N,N-dimethylglycyl)morpholin-2-yl]methoxy}pyridin-3-yl)sulfonyl]-4-(4-{[2-(4-chlorophenyl)-4,4-dimethylcyclohex-1-en-1-yl]methyl}piperazin-1-yl)benzamide] | 782.52
CN(C)CC(=O)N1CCO[C@H](COc2ncc(S(=O)(=O)NC(=O)c3ccc(N4CCN(CC5=C(c6ccc(Cl)cc6)CC(C)(C)CC5)CC4)cc3Oc3cccc4[nH]ncc34)cc2Cl)C1 [EXAMPLE 425, N-[(5-chloro-6-{[(2S)-4-(N,N-dimethylglycyl)morpholin-2-yl]methoxy}pyridin-3-yl)sulfonyl]-4-(4-{[2-(4-chlorophenyl)-4,4-dimethylcyclohex-1-en-1-yl]methyl}piperazin-1-yl)-2-(1H-indazol-4-yloxy)benzamide] | 1282
CC1(C)CCC(CN2CCN(c3ccc(C(=O)NS(=O)(=O)c4cnc(OCC5CCOCC5)c(Cl)c4)c(Oc4cccc5[nH]ncc45)c3)CC2)=C(c2ccc(Cl)cc2)C1 [EXAMPLE 427, 4-(4-{[2-(4-chlorophenyl)-4,4-dimethylcyclohex-1-en-1-yl]methyl}piperazin-1-yl)-N-{[5-chloro-6-(tetrahydro-2H-pyran-4-ylmethoxy)pyridin-3-yl]sulfonyl}-2-(1H-indazol-4-yloxy)benzamide] | 34408.55031
CC1(C)CCC(CN2CCN(c3ccc(C(=O)NS(=O)(=O)c4ccc(N[C@@H]5CCN(CC#N)C5)c([N+](=O)[O-])c4)c(Oc4cccc5[nH]cnc45)c3)CC2)=C(c2ccc(Cl)cc2)C1 [EXAMPLE 428, 2-(1H-benzimidazol-4-yloxy)-4-(4-{[2-(4-chlorophenyl)-4,4-dimethylcyclohex-1-en-1-yl]methyl}piperazin-1-yl)-N-[(4-{[(3R)-1-(cyanomethyl)pyrrolidin-3-yl]amino}-3-nitrophenyl)sulfonyl]benzamide] | 5832
COCCOCCN1CC[C@@H](Nc2ccc(S(=O)(=O)NC(=O)c3ccc(N4CCN(CC5=C(c6ccc(Cl)cc6)CC(C)(C)CC5)CC4)cc3Oc3cccc4[nH]cnc34)cc2[N+](=O)[O-])C1 [EXAMPLE 429, 2-(1H-benzimidazol-4-yloxy)-4-(4-{[2-(4-chlorophenyl)-4,4-dimethylcyclohex-1-en-1-yl]methyl}piperazin-1-yl)-N-{[4-({(3R)-1-[2-(2-methoxyethoxy)ethyl]pyrrolidin-3-yl}amino)-3-nitrophenyl]sulfonyl}benzamide] | 140.65
CN(C)CC(=O)N1CC[C@@H](Nc2ccc(S(=O)(=O)NC(=O)c3ccc(N4CCN(CC5=C(c6ccc(Cl)cc6)CC(C)(C)CC5)CC4)cc3Oc3cccc4[nH]cnc34)cc2[N+](=O)[O-])C1 [EXAMPLE 430, 2-(1H-benzimidazol-4-yloxy)-4-(4-{[2-(4-chlorophenyl)-4,4-dimethylcyclohex-1-en-1-yl]methyl}piperazin-1-yl)-N-[(4-{[(3R)-1-(N,N-dimethylglycyl)pyrrolidin-3-yl]amino}-3-nitrophenyl)sulfonyl]benzamide] | 99.767
CC1(C)CCC(CN2CCN(c3ccc(C(=O)NS(=O)(=O)c4ccc(NCC5CN(CC#N)CCO5)c([N+](=O)[O-])c4)c(Oc4cccc5[nH]cnc45)c3)CC2)=C(c2ccc(Cl)cc2)C1 (stereo not drawn) [EXAMPLE 431, 2-(1H-benzimidazol-4-yloxy)-4-(4-{[2-(4-chlorophenyl)-4,4-dimethylcyclohex-1-en-1-yl]methyl}piperazin-1-yl)-N-{[4-({[4-(cyanomethyl)morpholin-2-yl]methyl}amino)-3-nitrophenyl]sulfonyl}benzamide] | 677.36
CC1(C)CCC(CN2CCN(c3ccc(C(=O)NS(=O)(=O)c4ccc(NCC5CN(C6CC6)CCO5)c([N+](=O)[O-])c4)c(Oc4cccc5[nH]cnc45)c3)CC2)=C(c2ccc(Cl)cc2)C1 (stereo not drawn) [EXAMPLE 432, 2-(1H-benzimidazol-4-yloxy)-4-(4-{[2-(4-chlorophenyl)-4,4-dimethylcyclohex-1-en-1-yl]methyl}piperazin-1-yl)-N-[(4-{[(4-cyclopropylmorpholin-2-yl)methyl]amino}-3-nitrophenyl)sulfonyl]benzamide] | 408.8
CC1(C)CCC(CN2CCN(c3ccc(C(=O)NS(=O)(=O)c4ccc(NCC5CN(C6COC6)CCO5)c([N+](=O)[O-])c4)c(Oc4cccc5[nH]cnc45)c3)CC2)=C(c2ccc(Cl)cc2)C1 (stereo not drawn) [EXAMPLE 433, 2-(1H-benzimidazol-4-yloxy)-4-(4-{[2-(4-chlorophenyl)-4,4-dimethylcyclohex-1-en-1-yl]methyl}piperazin-1-yl)-N-[(3-nitro-4-{[(4-oxetan-3-ylmorpholin-2-yl)methyl]amino}phenyl)sulfonyl]benzamide] | 228.55
CC1(C)CCC(CN2CCN(c3ccc(C(=O)NS(=O)(=O)c4cnc(O[C@@H]5CCN(C(CF)CF)C5)c(Cl)c4)c(Oc4cccc5[nH]ncc45)c3)CC2)=C(c2ccc(Cl)cc2)C1 [EXAMPLE 434, N-{[5-chloro-6-({(3R)-1-[2-fluoro-1-(fluoromethyl)ethyl]pyrrolidin-3-yl}oxy)pyridin-3-yl]sulfonyl}-4-(4-{[2-(4-chlorophenyl)-4,4-dimethylcyclohex-1-en-1-yl]methyl}piperazin-1-yl)-2-(1H-indazol-4-yloxy)benzamide] | 1459
CN(C)CC(=O)N1CCO[C@H](CNc2ccc(S(=O)(=O)NC(=O)c3ccc(N4CCN(CC5=C(c6ccc(Cl)cc6)CC(C)(C)CC5)CC4)cc3Oc3cccc4[nH]cnc34)cc2[N+](=O)[O-])C1 [EXAMPLE 437, 2-(1H-benzimidazol-4-yloxy)-4-(4-{[2-(4-chlorophenyl)-4,4-dimethylcyclohex-1-en-1-yl]methyl}piperazin-1-yl)-N-{[4-({[(2R)-4-(N,N-dimethylglycyl)morpholin-2-yl]methyl}amino)-3-nitrophenyl]sulfonyl}benzamide] | 51.4
CN(C)CC(=O)N1CCO[C@@H](CNc2ccc(S(=O)(=O)NC(=O)c3ccc(N4CCN(CC5=C(c6ccc(Cl)cc6)CC(C)(C)CC5)CC4)cc3Oc3cccc4[nH]cnc34)cc2[N+](=O)[O-])C1 [EXAMPLE 438, 2-(1H-benzimidazol-4-yloxy)-4-(4-{[2-(4-chlorophenyl)-4,4-dimethylcyclohex-1-en-1-yl]methyl}piperazin-1-yl)-N-{[4-({[(2S)-4-(N,N-dimethylglycyl)morpholin-2-yl]methyl}amino)-3-nitrophenyl]sulfonyl}benzamide] | 34.5
CC1(C)CCC(CN2CCN(c3ccc(C(=O)NS(=O)(=O)c4ccc(NCC5CCOC5)c([N+](=O)[O-])c4)c(Oc4cccc5[nH]cnc45)c3)CC2)=C(c2ccc(Cl)cc2)C1 (stereo not drawn) [EXAMPLE 439, 2-(1H-benzimidazol-4-yloxy)-4-(4-{[2-(4-chlorophenyl)-4,4-dimethylcyclohex-1-en-1-yl]methyl}piperazin-1-yl)-N-({3-nitro-4-[(tetrahydrofuran-3-ylmethyl)amino]phenyl}sulfonyl)benzamide] | 1496.8
CO[C@H]1CC[C@H](CNc2ccc(S(=O)(=O)NC(=O)c3ccc(N4CCN(CC5=C(c6ccc(Cl)cc6)CC(C)(C)CC5)CC4)cc3Oc3cccc4[nH]cnc34)cc2[N+](=O)[O-])CC1 [EXAMPLE 440, Trans-2-(1H-benzimidazol-4-yloxy)-4-(4-{[2-(4-chlorophenyl)-4,4-dimethylcyclohex-1-en-1-yl]methyl}piperazin-1-yl)-N-[(4-{[(4-methoxycyclohexyl)methyl]amino}-3-nitrophenyl)sulfonyl]benzamide] | 4549.1
CC1(C)CCC(CN2CCN(c3ccc(C(=O)NS(=O)(=O)c4ccc(NCC5(F)CCOCC5)c([N+](=O)[O-])c4)c(Oc4cccc5[nH]cnc45)c3)CC2)=C(c2ccc(Cl)cc2)C1 [EXAMPLE 441, 2-(1H-benzimidazol-4-yloxy)-4-(4-{[2-(4-chlorophenyl)-4,4-dimethylcyclohex-1-en-1-yl]methyl}piperazin-1-yl)-N-[(4-{[(4-fluorotetrahydro-2H-pyran-4-yl)methyl]amino}-3-nitrophenyl)sulfonyl]benzamide] | 2421.9
CC1(C)CCC(CN2CCN(c3ccc(C(=O)NS(=O)(=O)c4cnc(OCC5(F)CCOCC5)c(F)c4)c(Oc4cccc5[nH]cnc45)c3)CC2)=C(c2ccc(Cl)cc2)C1 [EXAMPLE 442, 2-(1H-benzimidazol-4-yloxy)-4-(4-{[2-(4-chlorophenyl)-4,4-dimethylcyclohex-1-en-1-yl]methyl}piperazin-1-yl)-N-({5-fluoro-6-[(4-fluorotetrahydro-2H-pyran-4-yl)methoxy]pyridin-3-yl}sulfonyl)benzamide] | 3358.9
